Data as given in patent publication EP0768085A1, “ANTIBACTERIAL AGENT” (DAIICHI PHARMACEUTICAL CO., LTD., priority 1994, dated 1996).
Converted amounts (≈) assume the structure as drawn.

How the values were obtained:
Format in all cases: cell-based
[1] = test system: Streptococcus aureus (TI-1); assay: Antibacterial activity (IC), agar as in Example 8 (Example 16, Table 49); settings: 18 h
Procedure: (§1) The antibacterial action was evaluated by the inhibitory concentration (hereinafter abbreviated as IC) at which propagation of the bacteria cultured at 37°C for 18 hours was inhibited. Inhibition was determined by the turbidity of the medium. The expressions "IC≤100", "≤10", and "≤1" indicate that MIC-equivalent values obtained at the succesive […] dilution of the sample are 100-10 µg/ml, 10-1 µg/ml, and not more than 1 µg/ml, respectively. […] (In the subsequent Examples, the same rule applies correspondingly.) Table 39
(§2) A suitable amount of a sample was dissolved in dimethylsulfoxide (DMSO), after which the resulting solution was diluted with the same amount of sterilized distilled water to prepare a bulk sample of 1,000 µg/ml. Separately, a bacterial liquid for the test (methicillin-resistant Staphylococcus aureus (MRSA) isolated from humans) which had been cultured in Mueller-Hinton broth (product of DIFCO) was prepared and inoculated to a Mueller-Hinton agar (product of DIFCO) containing the sample so that the final inoculation amount of 10^6 CFU/ml was achieved. The final concentrations of the samples were 100, 10, and 1 µg/ml.
(§3) After culturing at 37°C for 18 hours, the antibacterial activity was evaluated in terms of IC in a manner similar to that described in Example 4.
In a manner similar to that described in Example 8, antibacterial activity of the invention compound was determined. The bacterium used for the test was […] aureus (TI-1).

[2] = test system: Staphylococcus aureus (209-P); assay: Antibacterial activity (IC), agar as in Example 8 (Example 15, Table 48); settings: 18 h
Procedure: as §1, §2, §3
The bacterium used for the test was Staphylococcus aureus (209-P).

[3] = test system: Pasteurella multocida (Kobe-6); assay: Antibacterial activity (IC), agar as in Example 8 (Example 17, Table 50); settings: 18 h, origin pig
Procedure: as §1, §2, §3
In a manner similar to that described in Example 8, antibacterial activity of the invention compound was determined. The bacterium used for the test was Pasteurella Kobe-6 (origin: pig, Pasteurella multocida).

[4] = test system: methicillin-resistant Staphylococcus aureus (MRSA) from humans; assay: Antibacterial activity (IC), agar as in Example 8 (Example 19, Table 52); settings: 18 h
Procedure: as §1, §2, §3
In a manner similar to that described in Example 8, antibacterial activity of a variety of ketonitrile derivatives shown in Table 52 was measured. The bacterium used for the test was methicillin-resistant Staphylococcus aureus (MRSA) from humans.

Pasteurella from fish = assay: Antibacterial activity (IC), agar as in Example 8, media with 1.5% NaCl, 25°C (Example 20, Tables 53-55); settings: for MIC: Pasteurella piscicida KP94-02
Procedure: as §1, §2, §3
(§4) In a manner similar to that described in Example 8, antibacterial activity of a variety of ketonitrile derivatives shown in Tables 53-55 was measured. The bacteria used for the test were Enterococcus and Pasteurella from fish. The culture conditions were such that the media contained 1.5% NaCl, and the culture temperature was 25°C.

Enterococcus from fish = assay: as above; settings: for MIC: Enterococcus Seriolicida SE94-002
Procedure: as §1, §2, §3, §4

[5] = Enterococcus Seriolicida KG86050
[6] = Enterococcus Seriolicida MS89060
[7] = Enterococcus Seriolicida MS89064
[8] = Enterococcus Seriolicida MS89066
[9] = Enterococcus Seriolicida MS89068
[10] = Enterococcus Seriolicida SE94-001
[11] = Enterococcus Seriolicida SE94-003
[12] = Enterococcus Seriolicida SE94-004
[13] = Enterococcus Seriolicida SE94-005

| SMILES | MIC [1] [µg/mL] | MIC [2] [µg/mL] | MIC [3] [µg/mL] | MIC ([4]; MRSA strain 891179) [µg/mL] | MIC ([4]; MRSA strain 891185) [µg/mL] | MIC (Pasteurella from fish) [µg/mL] | IC (Enterococcus from fish; Enterococcus Seriolicida HI) | IC (Enterococcus from fish; [5]) | IC (Enterococcus from fish; [6]) | IC (Enterococcus from fish; [7]) | IC (Enterococcus from fish; [8]) | IC (Enterococcus from fish; [9]) | IC (Enterococcus from fish; [10]) | MIC (Enterococcus from fish) [µg/mL] | IC (Enterococcus from fish; [11]) | IC (Enterococcus from fish; [12]) | IC (Enterococcus from fish; [13]) | IC (Pasteurella from fish; Pasteurella piscicida KP94-04) | IC (Pasteurella from fish; Pasteurella piscicida KP94-05) | IC (Pasteurella from fish; Pasteurella piscicida KP94-06) | other results |
| --- | --- | --- | --- | --- | --- | --- | --- | --- | --- | --- | --- | --- | --- | --- | --- | --- | --- | --- | --- | --- | --- |
| CC(Oc1cccc(Oc2ccc(Br)cc2F)c1)C(=O)C(C#N)c1ccc(Cl)c(Cl)c1 (stereo not drawn) [Compound No. 109, 4-[3-(4-bromo-2-fluorophenoxy)phenoxy]-2-(3,4-dichlorophenyl)-3-oxopentanonitrile] | ≤ 1 | 1 to 10 (≈ 1.91 to 19.1 µM) | 1 to 10 (≈ 1.91 to 19.1 µM) | 1 to 10 (≈ 1.91 to 19.1 µM) | 1 to 10 (≈ 1.91 to 19.1 µM) | 1 to 10 (≈ 1.91 to 19.1 µM) | ≤10 (10-1 µg/ml) | ≤10 (10-1 µg/ml) | ≤10 (10-1 µg/ml) | ≤10 (10-1 µg/ml) | ≤10 (10-1 µg/ml) | ≤10 (10-1 µg/ml) | ≤10 (10-1 µg/ml) | 1 to 10 (≈ 1.91 to 19.1 µM) | ≤10 (10-1 µg/ml) | ≤10 (10-1 µg/ml) | ≤10 (10-1 µg/ml) |  |  |  | MIC ([4]; MRSA strain 891187): 1 to 10 µg/mL (≈ 1.91 to 19.1 µM); MIC ([4]; MRSA strain 891192): 1 to 10 µg/mL (≈ 1.91 to 19.1 µM); MIC ([4]; MRSA strain 900048): 1 to 10 µg/mL (≈ 1.91 to 19.1 µM); MIC ([4]; MRSA strain 900056): 1 to 10 µg/mL (≈ 1.91 to 19.1 µM) |
| CC(Oc1cccc(Oc2ccc(Br)cc2F)c1)C(=O)C(C#N)c1cccc(Br)c1 (stereo not drawn) [Compound No. 111, 4-[3-(4-bromo-2-fluorophenoxy)phenoxy]-2-(3-bromophenyl)-3-oxopentanonitrile] | 1 to 10 (≈ 1.88 to 18.8 µM) | 1 to 10 (≈ 1.88 to 18.8 µM) | 10 to 100 (≈ 18.8 to 188 µM) | 1 to 10 (≈ 1.88 to 18.8 µM) | 1 to 10 (≈ 1.88 to 18.8 µM) | 10 to 100 (≈ 18.8 to 188 µM) | ≤10 (10-1 µg/ml) | ≤10 (10-1 µg/ml) | ≤10 (10-1 µg/ml) | ≤10 (10-1 µg/ml) | ≤10 (10-1 µg/ml) | ≤10 (10-1 µg/ml) | ≤10 (10-1 µg/ml) | 1 to 10 (≈ 1.88 to 18.8 µM) | ≤10 (10-1 µg/ml) | ≤10 (10-1 µg/ml) | ≤10 (10-1 µg/ml) | ≤100 (MIC-equivalent values obtained at the succesive 2-fold dilution of the sample are 100-10 µg/ml) | ≤100 (MIC-equivalent values obtained at the succesive 2-fold dilution of the sample are 100-10 µg/ml) | ≤100 (MIC-equivalent values obtained at the succesive 2-fold dilution of the sample are 100-10 µg/ml) | MIC ([4]; MRSA strain 891187): 1 to 10 µg/mL (≈ 1.88 to 18.8 µM); MIC ([4]; MRSA strain 891192): 1 to 10 µg/mL (≈ 1.88 to 18.8 µM); MIC ([4]; MRSA strain 900048): 1 to 10 µg/mL (≈ 1.88 to 18.8 µM); MIC ([4]; MRSA strain 900056): 1 to 10 µg/mL (≈ 1.88 to 18.8 µM) |
| CC(Oc1cccc(Oc2ccc(C(F)(F)F)cc2Cl)c1)C(=O)C(C#N)c1cccc(Br)c1 (stereo not drawn) [Compound No. 104, 2-(3-bromophenyl)-4-[3-(2-chloro-4-trifluoromethylphenoxy)phenoxy]-3-oxopentanonitrile] | ≤ 1 | ≤ 1 | 1 to 10 (≈ 1.86 to 18.6 µM) | 1 to 10 (≈ 1.86 to 18.6 µM) | 1 to 10 (≈ 1.86 to 18.6 µM) |  |  |  |  |  |  |  |  |  |  |  |  |  |  |  | MIC ([4]; MRSA strain 891187): 1 to 10 µg/mL (≈ 1.86 to 18.6 µM); MIC ([4]; MRSA strain 891192): 1 to 10 µg/mL (≈ 1.86 to 18.6 µM); MIC ([4]; MRSA strain 900048): 1 to 10 µg/mL (≈ 1.86 to 18.6 µM); MIC ([4]; MRSA strain 900056): 1 to 10 µg/mL (≈ 1.86 to 18.6 µM) |
| CC(Oc1cc(Oc2ccc(C(F)(F)F)cc2Cl)ccc1[N+](=O)[O-])C(=O)C(C#N)c1ccc(Cl)cc1Cl (stereo not drawn) [Compound No. 116, 4-[5-(2-chloro-4-trifluoromethylphenoxy)-2-nitrophenoxy]-2-(2,4-dichlorophenyl)-3-oxopentanonitrile] | 1 to 10 (≈ 1.74 to 17.4 µM) | 1 to 10 (≈ 1.74 to 17.4 µM) | 1 to 10 (≈ 1.74 to 17.4 µM) |  |  | 10 to 100 (≈ 17.4 to 174 µM) | ≤10 (10-1 µg/ml) | ≤10 (10-1 µg/ml) | ≤10 (10-1 µg/ml) | ≤10 (10-1 µg/ml) | ≤10 (10-1 µg/ml) | ≤10 (10-1 µg/ml) | ≤10 (10-1 µg/ml) | 1 to 10 (≈ 1.74 to 17.4 µM) | ≤10 (10-1 µg/ml) | ≤10 (10-1 µg/ml) | ≤10 (10-1 µg/ml) | ≤100 (MIC-equivalent values obtained at the succesive 2-fold dilution of the sample are 100-10 µg/ml) | ≤100 (MIC-equivalent values obtained at the succesive 2-fold dilution of the sample are 100-10 µg/ml) | ≤100 (MIC-equivalent values obtained at the succesive 2-fold dilution of the sample are 100-10 µg/ml) |  |
| CC(Oc1cccc(Oc2ccc(C(F)(F)F)cc2Cl)c1)C(=O)C(C#N)c1ccc(Cl)cc1Cl (stereo not drawn) [Compound No. 108, 4-[3-(2-chloro-4-trifluoromethyl-phenoxy)phenoxy)-2-(2,4-dichlorophenyl)-3-oxopentanonitrile] | 1 to 10 (≈ 1.89 to 18.9 µM) | 1 to 10 (≈ 1.89 to 18.9 µM) | 10 to 100 (≈ 18.9 to 189 µM) |  |  | 10 to 100 (≈ 18.9 to 189 µM) | ≤10 (10-1 µg/ml) | ≤10 (10-1 µg/ml) | ≤10 (10-1 µg/ml) | ≤10 (10-1 µg/ml) | ≤10 (10-1 µg/ml) | ≤10 (10-1 µg/ml) | ≤10 (10-1 µg/ml) | 1 to 10 (≈ 1.89 to 18.9 µM) | ≤10 (10-1 µg/ml) | ≤10 (10-1 µg/ml) | ≤10 (10-1 µg/ml) | ≤100 (MIC-equivalent values obtained at the succesive 2-fold dilution of the sample are 100-10 µg/ml) | ≤100 (MIC-equivalent values obtained at the succesive 2-fold dilution of the sample are 100-10 µg/ml) | ≤100 (MIC-equivalent values obtained at the succesive 2-fold dilution of the sample are 100-10 µg/ml) |  |
| CC(Oc1cccc(Oc2ccc(C(F)(F)F)cc2Cl)c1)C(=O)C(C#N)c1cccc(C(F)(F)F)c1 (stereo not drawn) [Compound No. 106, 4-[3-(2-chloro-4-trifluoromethylphenoxy)phenoxy]-3-oxo-2-(3-trifluoromethylphenyl)pentanonitrile] | 1 to 10 (≈ 1.89 to 18.9 µM) | 1 to 10 (≈ 1.89 to 18.9 µM) | 10 to 100 (≈ 18.9 to 189 µM) |  |  | 10 to 100 (≈ 18.9 to 189 µM) | ≤10 (10-1 µg/ml) | ≤10 (10-1 µg/ml) | ≤10 (10-1 µg/ml) | ≤10 (10-1 µg/ml) | ≤10 (10-1 µg/ml) | ≤10 (10-1 µg/ml) | ≤10 (10-1 µg/ml) | 1 to 10 (≈ 1.89 to 18.9 µM) | ≤10 (10-1 µg/ml) | ≤10 (10-1 µg/ml) | ≤10 (10-1 µg/ml) | ≤100 (MIC-equivalent values obtained at the succesive 2-fold dilution of the sample are 100-10 µg/ml) | ≤100 (MIC-equivalent values obtained at the succesive 2-fold dilution of the sample are 100-10 µg/ml) | ≤100 (MIC-equivalent values obtained at the succesive 2-fold dilution of the sample are 100-10 µg/ml) |  |
| CC(Oc1cc(Oc2ccc(C(F)(F)F)cc2Cl)ccc1[N+](=O)[O-])C(=O)C(C#N)C(=O)N1CCCC1 (stereo not drawn) [compound 134] | 10 to 100 (≈ 19 to 190 µM) | 10 to 100 (≈ 19 to 190 µM) | 10 to 100 (≈ 19 to 190 µM) |  |  | 10 to 100 (≈ 19 to 190 µM) | ≤100 (MIC-equivalent values obtained at the succesive 2-fold dilution of the sample are 100-10 µg/ml) | ≤100 (MIC-equivalent values obtained at the succesive 2-fold dilution of the sample are 100-10 µg/ml) | ≤100 (MIC-equivalent values obtained at the succesive 2-fold dilution of the sample are 100-10 µg/ml) | ≤100 (MIC-equivalent values obtained at the succesive 2-fold dilution of the sample are 100-10 µg/ml) | ≤100 (MIC-equivalent values obtained at the succesive 2-fold dilution of the sample are 100-10 µg/ml) | ≤100 (MIC-equivalent values obtained at the succesive 2-fold dilution of the sample are 100-10 µg/ml) | ≤100 (MIC-equivalent values obtained at the succesive 2-fold dilution of the sample are 100-10 µg/ml) | 10 to 100 (≈ 19 to 190 µM) | ≤100 (MIC-equivalent values obtained at the succesive 2-fold dilution of the sample are 100-10 µg/ml) | ≤100 (MIC-equivalent values obtained at the succesive 2-fold dilution of the sample are 100-10 µg/ml) | ≤100 (MIC-equivalent values obtained at the succesive 2-fold dilution of the sample are 100-10 µg/ml) |  |  |  |  |
